Laboratory results as given in patent US20150299061A1, “FERTILISER COMPOSITION” (priority 2012, published 2015).
Marks after values point to notes of the source that are not given here.

System: grazed pasture
Experiment: Field trial on grazed pasture: pasture shoot dry matter from two cuts after treatment application
Format: in vivo
Design: Mean Difference vs C (control) / Mean Difference vs UG-20 / Mean Difference vs UG-20 + GA-10 / Mean Difference vs UG-20 + GA-30 / Mean Difference vs UG-20 + GA-60 / Mean Difference vs UL-20 / Mean Difference vs UL-20 + GA-20 / Mean Difference (Control minus treatment): unit not given here
Description: The trial was carried out with a total of eight treatments. The eight treatment groups were • 1. Control—negative control (no nitrogen or gibberellic acid), • 2. GA-20—gibberellic acid positive control (gibberellic acid applied at 20 g/ha), • 3. UG-20—granular urea positive control (granular urea applied at a rate of 20 kg N/ha, • 4. UG-20+GA-10—10 g/ha gibberellic acid-coated urea granules (granular urea-20 coated with gibberellic acid to apply gibberellic acid at a rate of 10 g/ha), • 5. UG-20+GA-30—30 g/ha gibberellic acid-coated urea granules (granular urea-20 coated with gibberellic acid to apply gibberellic acid at a rate of 30 g/ha), and • 6. UG-20+GA-60—60 g/ha gibberellic acid-coated urea granules (granular urea-20 coated with gibberellic acid to apply gibberellic acid at a rate of 60 g/ha). • 7. UL-20—liquid urea positive control (liquid urea applied at a rate of 20 kg N/ha [with total liquid volume of 200 L/ha]), and 8. UL-20+GA-20—liquid urea and gibberellic acid positive control (liquid urea applied at a rate of 20 kg N/ha with gibberellic acid applied at a rate of 20 g/ha).
The trial was performed with four repetitions per treatment group on a plot with an area of 2 m^2×2 m^2 at locations in Whangarei, Matamata, Lincoln, Ashburton, and Southland.
The treatments were applied on grazed pasture. All experimental sites were fenced off four months prior to treatment application to avoid nitrogen inputs from grazing animals and fertiliser application. At each site, four blocks separated by a 1 m buffer were established. Each block contained eight small plots (each plot of 2m^2×2m^2) separated by a 1 m buffer zone to give a total of 32 plots.
The above eight treatments were applied in mid August 2011. Before treatments application, four composite soil samples (0-10 cm soil depth), were collected for key soil properties (i.e. soil pH, organic C &N, Olsen P, K, Ca, Mg, CEC, base saturation and MAF quick test). Each composite soil sample composed of 10 randomly collected soil samples from each block. Pastures from each plot were cut at 4 to 5 cm height using a lawn mower at appropriate times (preferably after every 21 days) to simulate rotational grazing practices. Bulk fresh pasture weight for each plot was recorded. Before mowing pastures from each plot, four small randomly picked pasture samples from each plot were cut using a pair of scissors. Fresh pastures were transferred to sealable plastic bags and were kept in a chilly bin. Fresh pastures from each plastic bag were then be transferred to a pre-weighed paper bag, weighed (at least 2 decimal balance), and dried at 60 to 70° C. for one week. After one week of drying, dry pasture weight was recorded to determine pasture moisture content.
In the case of liquid treatments, these were all applied at a rate of 200 L/ha.
The effectiveness of the treatments was measured by comparing the pasture shoot dry matter from two cuts after treatment application. The first cut was made on 26 Sep. 2011 and the second cut made on 12 Oct. 2011.
The pairwise comparisons were calculated using Fisher's least significant difference (LSD) with P=0.05.

## C=C1C[C@]23C[C@@]1(O)CC[C@H]2[C@@]12C=C[C@H](O)[C@@](C)(C(=O)O1)[C@H]2[C@@H]3C(=O)O [GA-20 only, gibberellic acid]
Mean for the five treatment areas (Whangarei, Matamata, Lincoln, Ashburton, Southland), two cuts after treatment
  Cumulative mean pasture dry matter: 3038.7
Pairwise comparison of Table 1 means, Fisher's LSD P=0.05, Control is first treatment, labelled treatment is subtracted
  Mean Difference (Control minus treatment): −757.857*
Pairwise comparison, Fisher's LSD P=0.05, treatment minus C
  Mean Difference vs C (control): 757.857*
Pairwise comparison, Fisher's LSD P=0.05, treatment minus UG-20
  Mean Difference vs UG-20: 56.321
Pairwise comparison, Fisher's LSD P=0.05, treatment minus UG-20 + GA-10
  Mean Difference vs UG-20 + GA-10: −91.281
Pairwise comparison, Fisher's LSD P=0.05, treatment minus UG-20 + GA-30
  Mean Difference vs UG-20 + GA-30: −427.001*
Pairwise comparison, Fisher's LSD P=0.05, treatment minus UG-20 + GA-60
  Mean Difference vs UG-20 + GA-60: −381.674*
Pairwise comparison, Fisher's LSD P=0.05, treatment minus UL-20
  Mean Difference vs UL-20: −141.578
Pairwise comparison, Fisher's LSD P=0.05, treatment minus UL-20 + GA-20
  Mean Difference vs UL-20 + GA-20: −423.846*
